Experimental data taken from patent US20160000750A1, “COMBINATION OF EGCG OR METHYLATED EGCG AND A PDE INHIBITOR” (KYUSHU UNIVERSITY, NATIONAL UNIVERSITY CORPORATION, priority 2010, published 2016).

System: human acute myeloid leukemia cell line, HL60
Test: Trypan blue cell viability and viable cell count, HL60
Type: cell-based
Settings: vardenafil 5 μM, EGCG 5 μM added after 3 hours, 96 hours
Description: A human multiple myeloma cell line, U266, was subcultured in an RPMI 1640 medium (NISSUI PHARMACEUTICAL Co. LTD., Tokyo) supplemented with 10% fetal calf serum (FCS) (BIOLOGICAL INDUSTRIES) at 37° C. under vapor-saturated 5% CO2 conditions. The cells were cultured in the logarithmic growth phase. A human acute myeloid leukemia cell line, HL60, was subcultured in an RPMI 1640 medium supplemented with 10% fetal calf serum (FCS) at 37° C. under vapor-saturated 5% CO2 conditions. The cells were cultured in the logarithmic growth phase. […]
The plate was returned to the incubator immediately after the addition of EGCG, followed by culturing for 96 hours. […] After 10 minutes, the number of the cells was counted with a hemocytometer (Becton, Dickinson and Company). Unstained cells were deemed as viable cells, and the cell viability was determined as a ratio of the number of unstained cells in trypan blue staining to the total number of cells. […]

(−)-epigallocatechin-3-O-gallate [EGCG]
cell viability (cell-killing activity): any cytotoxicity was not observed
